Test results as given in PubChem BioAssay (NCI).
Where “and” joins values, the source holds several entries; their conditions need not be identical. Equal entries are not always repeated.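 Values below derive from 48-hour exposures of cells grown in 96-well plates, with endpoints linearly interpolated between the two concentrations bracketing the appropriate inhibition level. The concentration for 50% growth inhibition is given as GI50. TGI marks complete inhibition of growth.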

Columns and labels:
Experiment in all cases: growth of human tumour cells (NCI), 48 h
[1] = test system: HOP-62 NSCLC
[2] = test system: MDA-MB-231 breast
[3] = test system: A498 renal
[4] = test system: MOLT-4 leukemia
[5] = test system: ACHN renal
[6] = test system: SK-OV-3 ovarian
[7] = test system: UACC-62 melanoma
[8] = test system: BT-549 breast
[9] = test system: HT29 colon
[10] = test system: HOP-92 NSCLC

Row | Structure (SMILES) | GI50 [1] | TGI [1] | GI50 [2] | TGI [2] | GI50 [3] | TGI [3] | GI50 [4] | TGI [4] | GI50 [5] | TGI [5] | GI50 [6] | TGI [6] | GI50 [7] | TGI [7] | GI50 [8] | TGI [8] | GI50 [9] | TGI [9] | GI50 [10] | TGI [10]
1 | CCCS(=O)(=O)Nc1ccc(F)c(C(=O)c2c[nH]c3ncc(-c4ccc(Cl)cc4)cc23)c1F | 7.39 µM and > 8.12 µM | 21.6 µM and > 10 µM | 3.98 µM and 5.16 µM | 18.9 µM and > 10 µM | 1.72 µM and 2.59 µM | 12.3 µM and > 8.97 µM | 3.72 µM and > 8.33 µM | 16.1 µM and > 10 µM | 3.92 µM and 4.77 µM | 15.9 µM and > 10 µM | 4.19 µM and 3.38 µM | 19 µM and > 10 µM | 0.0241 µM and 0.034 µM | 0.496 µM and 0.485 µM | 5.2 µM and > 7.63 µM | 19.2 µM and > 10 µM | 0.0887 µM and 0.0812 µM | 9.55 µM and > 10 µM | 2.63 µM and 4.84 µM | 12.5 µM and > 10 µM
2 | COc1ccc(N2CCN(C(=O)c3ccccc3Nc3ccnc(C(F)(F)F)c3)CC2)cc1 | 54.8 µM | > 100 µM | > 100 µM | > 100 µM | 12.2 µM | > 100 µM | 29.3 µM | > 100 µM | > 100 µM | > 100 µM | > 100 µM | > 100 µM | 30.9 µM | > 100 µM | 68.5 µM | > 100 µM | 77.1 µM | > 100 µM | 5.33 µM | 68.8 µM
3 | CN(C)c1ccc(/C=C2\C[C@H]3[C@@H]4CC=C5C[C@@H](N6CCCC6)CC[C@]5(C)[C@H]4CC[C@]3(C)[C@H]2O)cc1 | 2.98 µM | 7.14 µM and 12.9 µM | 2.23 µM | 2.16 µM and 4.46 µM | 2.89 µM | 2.1 µM and 8.92 µM | 4.98 µM | – | 1.82 µM | 1.71 µM and 3.34 µM | 14.7 µM | 13 µM and > 100 µM | 2 µM | 1.6 µM and 4.05 µM | 17.4 µM | 9.72 µM and 53.1 µM | 3.17 µM | 3.54 µM and 15.1 µM | – | 4.98 µM
4 | S=c1nc[nH]c2c1ncn2Cc1ccco1 | – | > 100 µM | – | > 100 µM | – | > 100 µM | – | > 100 µM | – | > 100 µM | – | > 100 µM | – | > 100 µM | – | > 100 µM | – | > 100 µM | – | > 100 µM
5 | C/C1=C\[C@H](C)C[C@H](C)OC(=O)C[C@H](c2ccc(O)cc2)NC(=O)[C@@H](Cc2c(Br)[nH]c3ccccc23)N(C)C(=O)[C@H](C)NC(=O)[C@@H](C)C1 | 0.0883 µM | 0.443 µM and 0.369 µM | – | 0.0741 µM | 0.0703 µM | 0.137 µM and 0.5 µM | 0.0764 µM | 4.54 µM | 0.0228 µM | 0.0894 µM | 0.0267 µM | 0.579 µM and 0.0749 µM | 0.0414 µM | 0.9 µM and 1.44 µM | – | 0.0669 µM | 0.0216 µM | 0.897 µM and 8.94 µM | 0.0304 µM | 0.532 µM and 0.535 µM
6 | CN1/C(=C\C(I)C(I)C2=[N+](C)c3ccccc3C2(C)C)C(C)(C)c2ccccc21 (stereo unspecified) | 0.383 µM | 13.8 µM | 0.773 µM | 20.9 µM | 0.178 µM | 1.49 µM | 0.243 µM | 2.07 µM | 0.665 µM | 26.4 µM | 0.247 µM | 1.6 µM | 0.303 µM | 14.2 µM | 0.119 µM | 3.17 µM | 0.242 µM | 11.4 µM | 0.0931 µM | 1.23 µM
7 | C#CCN1C(=O)/C(=c2\sc3n(c2=O)C2C(NN=3)N(CC)C(=O)N2CC)c2ccccc21 (stereo unspecified) | 0.868 µM | > 52.6 µM | 2.07 µM | 40 µM | 0.186 µM | 0.728 µM | 0.708 µM | > 100 µM | 0.65 µM | > 58.2 µM | 3.11 µM | > 100 µM | 0.453 µM | > 74.1 µM | 0.568 µM | 12.4 µM | 0.387 µM | > 100 µM | 1.55 µM | 78.7 µM
8 | COc1ccc(OC)c(-c2nc3sccn3c2/C=C2/C(=O)Nc3ccc(Cl)cc32)c1 | 25 µM | 60.5 µM | 20.3 µM | 55.3 µM | 20.8 µM | 38.8 µM | 22.1 µM | 69.4 µM | 30.8 µM | > 100 µM | 13.6 µM | 41.5 µM | 11.8 µM | 26.6 µM | 24.2 µM | 74.3 µM | 25.7 µM | 67.3 µM | 24.4 µM | > 100 µM
9 | COc1ccc(-c2nn(-c3cccc(Cl)c3)cc2C=C(C#N)C#N)cc1 | 2.59 µM | 6.04 µM | 2.03 µM | 5.14 µM | 1.23 µM | 5.95 µM | 2.12 µM | 6.12 µM | 2.64 µM | 8.82 µM | 2.66 µM | 5.72 µM | 2.39 µM | 10.6 µM | 1.55 µM | 4.05 µM | 2.48 µM | 5.56 µM | 1.26 µM | 3.98 µM
10 | C(=N\Nc1nnc2c(n1)[nH]c1ccccc12)/c1cccnc1 | – | > 100 µM | – | > 100 µM | – | > 100 µM | – | > 100 µM | – | > 100 µM | – | > 100 µM | – | > 100 µM | – | > 100 µM | – | > 100 µM | – | > 100 µM
11 | O=C(c1ccccc1Nc1ccnc(C(F)(F)F)c1)N1CCN(c2cccc(Cl)c2)CC1 | 28.2 µM | > 100 µM | 16.1 µM | 56 µM | 12.7 µM | 46.3 µM | 11.9 µM | 44.5 µM | 22.9 µM | 86.1 µM | 28.3 µM | 92.5 µM | 10.6 µM | 25.7 µM | 15.9 µM | 37.3 µM | 19.2 µM | 53.3 µM | 0.914 µM | 25 µM
12 | COc1ccc(SC2c3cc(OC)c(OC)cc3Oc3nc(N)c(C#N)c(N)c32)cc1 (stereo unspecified) | 1.7 µM | 3.09 µM | 1.43 µM | 2.81 µM | 1.42 µM | 2.85 µM | 0.315 µM | 1.6 µM | 1.74 µM | 3.12 µM | 1.81 µM | 3.2 µM | 0.449 µM | 1.74 µM | 1.02 µM | 2.19 µM | 2.16 µM | 5.04 µM | 1.24 µM | 2.72 µM
13 | Nc1ccc(-c2nc3ccc4[nH]ncc4c3c3c2CCCC3)cc1F | 1.67 µM | 16.9 µM | 1.71 µM | 30.5 µM | 0.636 µM | 3.24 µM | 1.27 µM | 5.82 µM | 0.316 µM | 15.5 µM | 0.367 µM | 2.77 µM | 1.19 µM | 6.71 µM | 1.28 µM | 7 µM | 1.53 µM | 18.5 µM | 1.7 µM | 11.2 µM
